According to patent US11713318B2, “Short conjugated oligoelectrolytes and uses thereof” (The Regents Of The University Of California, priority 2018, dated 2023):
In brackets after ≈: the same amount, converted by molar mass. Where two headings read alike, the source gives them in different places.

How the values were obtained:
[1] = tested on: primary human hepatocytes; assay: Cytotoxicity tested by Eurofins Pharma Discovery Services; type: cell-based; settings: for IC50: data provided by Eurofins
[2] = tested on: RAW264.7 (ATCC TIB-71) cells; assay: Cytotoxicity, MTT assay; type: cell-based, murine; settings: RAW 264.7
Experimental: (§1) Before removing the frozen cell stocks from liquid nitrogen, culture medium was pre-warmed to 37° C. The frozen tube was then removed from liquid nitrogen and placed into a 37° C. water bath and shaken gently to thaw the cell stock as quickly as possible. A small portion of the pre-warmed culture medium was added to the cell solution. The cell suspension was then centrifuged at 1000 r/min for 3 minutes. The supernatant was discarded and the cells were resuspended in fresh culture medium.
(§2) NIH 3T3 (ATCC CRL-1658) and Hep G2 (ATCC HB-8065) cells were cultured with DMEM+10% FBS in 100 mm dishes. Cells were lifted for subculture or testing when confluence reached ˜60% by treating with 1× trypsin (incubated for 3 min at 37° C.). J774 (ATCC TIB-67) cells were cultured with DMEM+10% FBS in 100 mm dishes. Cells were lifted for subculture or testing when confluence reached ˜80% using a cell scraper. RAW264.7 (ATCC TIB-71) cells were cultured with DMEM+10% heat-inactivated FBS+1% pen/strep in T75 flasks. Cells were lifted for subculture or testing when confluence reached ˜80% using a cell scraper.
• 1. Cells were lifted and resuspended in culture medium. The number of cells in the cell suspension was determined using an auto-cell counter: 10 μL of the cell suspension was mixed with 10 μL 1× trypan blue (filtered with 0.2 μm PES filter) and the mixture was loaded onto a cell counting slide. Based on the concentration of viable cells, the cell suspension was further diluted to achieve the desired density. • 2. […] The 96-well plates were analyzed in a plate reader using the following method: shake for 5 minutes, wait for 30 seconds, and measure absorbance at 570 nm. • 8. Data processing: The average of background Abg was calculated from the blank column. […] The average A. and standard deviation Se of each experimental group and the average Ac and standard deviation Sc for control group (with pure culture medium incubation) were then calculated. The cell viability was determined as Ae/Ac×100% and corresponding error as Se/Ae×100%. […]

[3] = tested on: K. aerogenes (ATCC 13048); assay: MIC broth microdilution method, Table 3
E. coli K12 (ATCC 47076) = assay: MIC broth microdilution method, Table 3
HRPTEpiC = assay: Cytotoxicity tested by Eurofins Pharma Discovery Services; type: cell-based; settings: data provided by Eurofins
[4] = tested on: S. epidermidis (ATCC 14990); assay: MIC broth microdilution method, Table 3
[5] = tested on: NIH 3T3 (ATCC CRL-1658) cells; assay: Cytotoxicity, MTT assay; type: cell-based; settings: NIH 3T3; for IC50: MTT, 24 hours incubation
Experimental: as §1, §2
(§3) • 1. Cells were lifted and resuspended in culture medium. The number of cells in the cell suspension was determined using an auto-cell counter: 10 μL of the cell suspension was mixed with 10 μL 1× trypan blue (filtered with 0.2 μm PES filter) and the mixture was loaded onto a cell counting slide. Based on the concentration of viable cells, the cell suspension was further diluted to achieve the desired density. • 2. Cells were seeded in 96 well plates by adding 100 μL final cell suspension column-by-column using a multichannel pipette (5000 cells/well for NIH 3T3, 10000 cells/well for Hep G2, J774 and RAW264.7). The outer wells were block with PBS to reduce the effects of evaporation. One column was filled with only culture medium as a blank. Cells were incubated overnight before adding the test articles. • 3. Test articles were dissolved in 1×PBS (or DMSO) to obtain stocks solution. Stock solutions were pre-warmed before use. […] Serial dilutions (2-fold) of the 10× solutions were made in sterile culture tubes by diluting in 1×PBS (8 dilutions to yield 9 test concentrations). 900 μL of culture media was added to each tube to obtain final drug solution containing 10% PBS (or less than 1% DMSO) for each experimental group. • 4. The original culture medium was gently removed from the 96-well plates using a pipette. 100 μL of the test article solutions prepared in Step 3 were added to rows 2-7 of each column to obtain six replicates for each concentration. Plates were then incubated for 24 hours. • 5. MTT solutions were prepared by dissolving commercial MTT powder in 1×PBS to a concentration of 5 mg/mL. After passing through a 0.22 μm PES filter, the MTT solution was divided into 1 mL portions in sterile centrifuge tubes and stored at −20° C. • 6. MTT stock solutions were removed from the freezer to thaw at room temperature. Before adding MTT solutions, cell cultures were visually inspected and imaged using a microscope (to use as a comparison with MTT results). 10 μL of the 5 mg/mL MTT solution was added to each well and the plate was incubated for 4 hours. • 7. After 4 h incubation, the culture medium/MT solution was removed gently using a pipette. 100 μL of DMSO was added to each well using a multichannel pipette. The 96-well plates were analyzed in a plate reader using the following method: shake for 5 minutes, wait for 30 seconds, and measure absorbance at 570 nm. • 8. Data processing: The average of background Abg was calculated from the blank column. All other data was first treated by subtracting Abg. The average A. and standard deviation Se of each experimental group and the average Ac and standard deviation Sc for control group (with pure culture medium incubation) were then calculated. The cell viability was determined as Ae/Ac×100% and corresponding error as Se/Ae×100%. Significant outliers in any experimental or control group were removed. […]

J774 (ATCC TIB-67) cells = assay: Cytotoxicity, MTT assay; type: cell-based; settings: for IC50: MTT, 24 hours incubation
Experimental: as §1, §2, §3

Hep G2 cells = assay: Cytotoxicity tested by Eurofins Pharma Discovery Services; type: cell-based; settings: for IC50: Hep G2, data provided by Eurofins
[6] = tested on: P. aeruginosa CDC0248 (MDR); assay: MIC against resistant strains, Tables 5a-5d; type: cell-based; settings: Pseudomonas aeruginosa, n = 3
Experimental: (§4) Compounds described herein were evaluated for growth inhibition against a variety of bacterial species, including strains that have developed resistance to common antibacterial treatments, according to the procedure described herein, or by analogous procedures known to those skilled in the art. Resistant bacterial strains used for compound testing include methicillin-resistant S. aureus (MRSA), vancomycin resistant Enterococci (VRE) and various multi-drug resistant (MDR) strains commonly associated with hospital-acquired (nosocomial) infections, including, but not limited to A. baumannii, K. pnuemoniae, and E. cloacae.

[7] = tested on: A. baumannii 1674627 (MDR); assay: MIC against resistant strains, Tables 5a-5d; type: cell-based; settings: Acinetobacter baumannii, n = 3
Experimental: as §4

E. coli ATCC25922 (WT) = assay: MIC against resistant strains, Tables 5a-5d; type: cell-based; settings: Escherichia coli, n = 3
Experimental: as §4

E. faecium 1674620 (VRE) = assay: MIC against resistant strains, Tables 5a-5d; type: cell-based; settings: Enterococcus faecium, n = 3
Experimental: as §4

[8] = tested on: S. aureus ATCC BAA-1717 (MRSA); assay: MIC against resistant strains, Tables 5a-5d; type: cell-based; settings: Staphylococcus aureus, n = 3
Experimental: as §4

[9] = tested on: E. cloacae 1744299 (ESBL); assay: MIC against resistant strains, Tables 5a-5d; type: cell-based; settings: Enterobacter cloacae, n = 3
Experimental: as §4

[10] = tested on: S. aureus ATCC 33591 (MRSA); assay: MIC against resistant strains, Tables 5a-5d; type: cell-based; settings: Staphylococcus aureus, n = 3
Experimental: as §4

[11] = tested on: A. baumannii CDC0290 (MDR); assay: MIC against resistant strains, Tables 5a-5d; type: cell-based; settings: Acinetobacter baumannii, n = 3
Experimental: as §4

[12] = tested on: K. pneumoniae ATCC BAA-2473 (MDR); assay: MIC against resistant strains, Tables 5a-5d; type: cell-based; settings: Klebsiella pneumoniae, ATCCBAA2473, n = 3
Experimental: as §4

[13] = tested on: K. pneumoniae CDC0010 (MDR); assay: MIC against resistant strains, Tables 5a-5d; type: cell-based; settings: Klebsiella pneumoniae, n = 3
Experimental: as §4

[14] = tested on: P. aeruginosa 1674623 (MDR); assay: MIC against resistant strains, Tables 5a-5d; type: cell-based; settings: Pseudomonas aeruginosa, n = 3
Experimental: as §4

[15] = tested on: Hep G2 (ATCC HB-8065) cells; assay: Cytotoxicity, MTT assay; type: cell-based; settings: Homo sapiens, HepG2, 24 h, Hep G2; MTT, 24 hours incubation; read-out: IC50
Experimental: as §1, §2, §3

Cytotoxicity, MTT assay = type: cell-based; settings: at the concentration given as IC50 bound, read-out: cell viability at the highest or lowest test concentration
Experimental: as §1, §2, §3

[16] = at the concentration given as IC50 bound
[17] = human, Hep G2 (ATCC HB-8065) cells, Hep G2
[18] = Klebsiella aerogenes, ATCC13048
[19] = Staphylococcus epidermidis, ATCC14990
[20] = Mus musculus, NIH3T3, read-out: IC50

With Colistin [reference compound] the “cell viability at the highest or lowest test concentration” value (shortened to “cell viability”) ([1]; Eurofins, at the concentration given as IC50 bound) was “(101%)”, the IC50 [1] was greater than 324 µg/mL and the IC50 ([2]; MTT, 24 hours incubation) was greater than 20 µg/mL. The “cell viability” value [2, 16] was “(109%)”, the MIC ([3]; K. aerogenes (−), LB medium, less than 10% relative growth) was 2 µg/mL and the MIC (E. coli K12 (ATCC 47076); E. coli K12 (−), LB medium, less than 10% relative growth) was 1 µg/mL. For the same compound, the IC50 (HRPTEpiC) was 215 µg/mL, the MIC ([4]; S. epidermidis (+), BHI medium, less than 10% relative growth) was greater than 64 µg/mL and the IC50 [5] was greater than 128 µg/mL. The “cell viability” value [5, 16] was “(104%)”, the IC50 (J774 (ATCC TIB-67) cells) was greater than 128 µg/mL and the “cell viability” value (J774 (ATCC TIB-67) cells; [16]) was “(115%)”. The “cell viability” value (Hep G2 cells; Hep G2, Eurofins, at the concentration given as IC50 bound) was “(100%)” and the IC50 (Hep G2 cells) was greater than 324 µg/mL.
CCC[N+](C)(C)CCCCOc1cc(/C=C/c2ccc(/C=C/c3cc(OCCCC[N+](C)(C)CCC)cc(OCCCC[N+](C)(C)CCC)c3)cc2)cc(OCCCC[N+](C)(C)CCC)c1 [Formula Q] gave an MIC [6] greater than 64 µg/mL, an MIC [7] of 64 µg/mL and an MIC (E. coli ATCC25922 (WT)) of 4 µg/mL. It also gave an MIC (E. faecium 1674620 (VRE)) of 1 µg/mL, an MIC [8] of 1 µg/mL and an MIC [9] of 4 µg/mL. The MIC [10] was 1 µg/mL, the MIC [11] was 64 µg/mL and the MIC [12] was 8 µg/mL. It also gave an MIC [13] of 32 µg/mL, an MIC [14] greater than 64 µg/mL and an MIC (E. coli K12 (ATCC 47076); Escherichia coli, ATCC47076) of 8 µg/mL. For the same compound, the IC50 [15] was greater than 128 µg/mL and the viability at 24 h (Cytotoxicity, MTT assay; [17]) was 91%.
CO/N=C(\C(=O)N[C@@H]1C(=O)N2C(C(=O)[O-])=C(C[n+]3cccc4c3CCC4)CS[C@H]12)c1csc(N)n1 [Cefpirome, reference compound] gave an MIC [3, 18] of 0.25 µg/mL (≈ 0.486 µM), an MIC (E. coli K12 (ATCC 47076); Escherichia coli, ATCC47076) of 0.0625 µg/mL (≈ 0.121 µM) and an MIC [4, 19] of 1 µg/mL (≈ 1.94 µM). The IC50 [15] was greater than 128 µg/mL, the IC50 [5, 20] was greater than 128 µg/mL and the IC50 (J774 (ATCC TIB-67) cells; Mus musculus, read-out: IC50) was greater than 128 µg/mL. For the same compound, the viability at 24 h (Cytotoxicity, MTT assay; [17]) was 101%, the viability at 24 h (Cytotoxicity, MTT assay; mouse, J774 (ATCC TIB-67) cells) was 107% and the viability at 24 h (Cytotoxicity, MTT assay; mouse, NIH 3T3 (ATCC CRL-1658) cells, NIH 3T3) was 81%.
With C[N+](C)(C)CCCCCCOc1cc(/C=C/c2ccc(/C=C/c3ccc(/C=C/c4cc(OCCCCCC[N+](C)(C)C)cc(OCCCCCC[N+](C)(C)C)c4)cc3)cc2)cc(OCCCCCC[N+](C)(C)C)c1 [Formula TT] the IC50 ([1]; Hepatocyte, read-out: IC50) was 102 µg/mL, the MIC [3, 18] was greater than 128 µg/mL and the MIC (E. coli K12 (ATCC 47076); Escherichia coli, ATCC47076) was greater than 256 µg/mL. For the same compound, the IC50 (HRPTEpiC; read-out: IC50) was 6.3 µg/mL, the MIC [4, 19] was 4 µg/mL and the IC50 [15] was greater than 128 µg/mL. The IC50 [5, 20] was 69.3 µg/mL, the viability at 24 h (Cytotoxicity, MTT assay; [17]) was 70% and the IC50 (Hep G2 cells; Homo sapiens, HepG2, read-out: IC50) was 94.6 µg/mL.
